Assay [1] has as its target histaminergic H1 receptor (Homo sapiens, UniProt P35367). The assay can be described thus: Cellular functional assay, histaminergic H1 receptor (agonism/antagonism). The class given is cell-based. The following applies: for activation at 1 µM: agonist effect, percent of control specific agonist response, compounds tested at 1×10^−6M, read-out: H1 -ag [%]; for inhibition at 1 µM: read-out: H1 -antag. [%]. The protocol:
(§1) The compounds were tested at the concentration of 1×10^−6M.
(§2) In the Tables ag refers to agonism, and antag to antagonism).

In assay [2] the target is serotoninergic 5-HT7 receptor (Homo sapiens, UniProt P34969). The experiment in a line: Cellular functional assay, serotoninergic 5-HT7 receptor (agonism/antagonism). The class given is cell-based. The following applies: for activation at 1 µM: agonist effect, percent of control specific agonist response, compounds tested at 1×10^−6M, read-out: 5-HT7-ag [%]; for inhibition at 1 µM: read-out: 5-HT7-antag. [%]. The protocol:
as §1, §2

Assay [3] has as its target T1, dopaminergic D2 receptor (Homo sapiens, UniProt P14416). The assay can be described thus: Cellular functional assay, dopaminergic D2 receptor (agonism/antagonism). The class given is cell-based. To be noted: HEK293; for activation at 1 µM: agonist effect, percent of control specific agonist response (3 μM dopamine for control), 1×10^−6 M, D2S (h), HEK-293 cells, read-out: D2-ag [%]; for inhibition at 1 µM: read-out: D2-antag. [%]. The protocol:
as §1, §2
Target sequence in this assay (P14416 whole entry): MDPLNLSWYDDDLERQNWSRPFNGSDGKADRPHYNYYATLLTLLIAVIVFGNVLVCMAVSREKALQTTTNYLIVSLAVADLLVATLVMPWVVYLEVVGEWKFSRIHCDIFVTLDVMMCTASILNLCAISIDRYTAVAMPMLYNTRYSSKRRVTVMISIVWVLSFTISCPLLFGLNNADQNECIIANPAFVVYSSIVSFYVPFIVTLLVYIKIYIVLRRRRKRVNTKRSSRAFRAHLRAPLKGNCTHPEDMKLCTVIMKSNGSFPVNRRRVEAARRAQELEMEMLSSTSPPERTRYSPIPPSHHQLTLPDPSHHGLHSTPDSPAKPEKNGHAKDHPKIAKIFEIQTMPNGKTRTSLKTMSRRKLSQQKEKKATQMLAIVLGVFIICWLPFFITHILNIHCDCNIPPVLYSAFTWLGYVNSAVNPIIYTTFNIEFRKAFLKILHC

The target in assay [4] is serotoninergic 5-HT6 receptor (Homo sapiens, UniProt P50406). The assay can be described thus: Cellular functional assay, serotoninergic 5-HT6 receptor (agonism/antagonism). The class given is cell-based. To be noted: for activation at 1 µM: agonist effect, percent of control specific agonist response, compounds tested at 1×10^−6M, read-out: 5-HT6-ag [%]; for inhibition at 1 µM: read-out: 5-HT6-antag. [%]. The protocol:
as §1, §2

In assay [5] the target is T2, serotoninergic 5-HT2A receptor (Homo sapiens, UniProt P28223). The experiment in a line: Binding assay 5-HT2A (h), [3H]ketanserin, HEK-293 cells. The arrangement: expressed in transfected cells; host or cells: HEK-293 cells. To be noted: read-out: 5-HT2A. In short, it runs like this:
(§3)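 At 1×10^−6 M, compounds were assessed for their effect on specific radioligand binding, computed as total less nonspecific binding (excess unlabelled ligand present).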

The target of another assay is dopaminergic D3 receptor (Homo sapiens, UniProt P35462). The experiment in a line: Cellular functional assay, dopaminergic D3 receptor (agonism/antagonism). The class given is cell-based. To be noted: for inhibition at 1 µM: CHO, read-out: D3-antag. [%]; for activation at 1 µM: agonist effect, percent of control specific agonist response (300 nM dopamine for control), 1×10^−6 M, D3 (h), CHO cells, read-out: D3-ag [%]. The protocol:
as §1, §2

The next assay concerns the target T3, adrenergic α1A receptor (Homo sapiens, UniProt P35348).
T3 sequence (P35348 1-466): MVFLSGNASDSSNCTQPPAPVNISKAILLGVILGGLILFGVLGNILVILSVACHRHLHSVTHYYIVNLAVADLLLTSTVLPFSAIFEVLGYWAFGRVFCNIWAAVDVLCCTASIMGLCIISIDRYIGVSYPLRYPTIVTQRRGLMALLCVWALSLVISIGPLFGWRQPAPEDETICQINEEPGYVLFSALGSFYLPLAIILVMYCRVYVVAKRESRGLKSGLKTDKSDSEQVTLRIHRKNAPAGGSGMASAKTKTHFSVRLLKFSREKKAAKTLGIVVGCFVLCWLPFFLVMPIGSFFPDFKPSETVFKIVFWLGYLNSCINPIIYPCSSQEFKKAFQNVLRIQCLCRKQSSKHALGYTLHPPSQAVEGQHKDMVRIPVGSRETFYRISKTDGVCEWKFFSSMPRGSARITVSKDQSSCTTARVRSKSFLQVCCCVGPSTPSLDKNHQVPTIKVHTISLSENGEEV
The assay can be described thus: Cellular functional assay, adrenergic α1A receptor (agonism/antagonism). In kind it is cell-based. To be noted: for activation at 1 µM: agonist effect, percent of control specific agonist response, compounds tested at 1×10^−6M, read-out: α1A -ag [%]; for inhibition at 1 µM: read-out: α1A -antag. [%]. An outline of the steps: (§4)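 Human receptors tested in cell-based functional format for both agonist and antagonist modes. Single compound concentration of 1×10^−6M.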

Assay [6] concerns the target T2, serotoninergic 5-HT2A receptor. The assay can be described thus: Cellular functional assay, serotoninergic 5-HT2A receptor (agonism/antagonism). In kind it is cell-based. To be noted: for activation at 1 µM: read-out: 5-HT2A -ag [%]; for inhibition at 1 µM: read-out: 5-HT2A -antag [%]. In short, it runs like this: as §4
For assay [7], the target named is T1, dopaminergic D2 receptor. The experiment in a line: Binding assay D2S (h), [3H]methyl-spiperone, HEK-293 cells. Set-up: expressed in transfected cells; host or cells: HEK-293 cells. To be noted: read-out: D2 [%]. In short, it runs like this: as §3
Target sequence in this assay (P14416 1-414 isoform P14416-2): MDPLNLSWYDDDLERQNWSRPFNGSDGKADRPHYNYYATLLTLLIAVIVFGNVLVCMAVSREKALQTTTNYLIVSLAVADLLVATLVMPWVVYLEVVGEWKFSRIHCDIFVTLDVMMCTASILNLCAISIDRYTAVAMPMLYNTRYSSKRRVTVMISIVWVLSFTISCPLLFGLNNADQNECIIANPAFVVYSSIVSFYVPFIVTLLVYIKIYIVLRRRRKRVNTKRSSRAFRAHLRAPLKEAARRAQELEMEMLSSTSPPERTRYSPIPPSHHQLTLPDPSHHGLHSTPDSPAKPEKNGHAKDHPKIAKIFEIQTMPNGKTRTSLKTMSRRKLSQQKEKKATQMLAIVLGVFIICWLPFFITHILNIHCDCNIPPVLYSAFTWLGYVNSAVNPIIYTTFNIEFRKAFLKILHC
The target of assay [8] is T4, serotonine transporter (SERT) receptor (Homo sapiens, UniProt P31645).
T4 construct: expressed in transfected cells; host or cells: CHO cells
T4 sequence (P31645 whole entry): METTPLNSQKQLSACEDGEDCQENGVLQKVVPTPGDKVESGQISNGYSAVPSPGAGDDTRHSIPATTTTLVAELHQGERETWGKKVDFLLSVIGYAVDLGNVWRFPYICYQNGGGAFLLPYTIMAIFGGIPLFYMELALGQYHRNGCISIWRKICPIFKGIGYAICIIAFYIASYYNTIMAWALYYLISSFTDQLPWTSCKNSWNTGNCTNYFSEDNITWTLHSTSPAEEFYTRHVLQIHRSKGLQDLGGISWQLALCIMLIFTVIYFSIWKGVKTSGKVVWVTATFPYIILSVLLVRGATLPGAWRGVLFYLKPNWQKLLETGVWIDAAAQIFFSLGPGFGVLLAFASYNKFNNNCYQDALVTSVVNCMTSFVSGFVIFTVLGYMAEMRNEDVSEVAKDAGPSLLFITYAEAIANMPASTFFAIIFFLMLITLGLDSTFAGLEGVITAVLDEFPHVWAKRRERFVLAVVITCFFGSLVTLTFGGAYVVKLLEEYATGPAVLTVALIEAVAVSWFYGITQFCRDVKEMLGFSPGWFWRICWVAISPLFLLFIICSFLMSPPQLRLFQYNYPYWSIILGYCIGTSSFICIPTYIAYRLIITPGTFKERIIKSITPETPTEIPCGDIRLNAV
The experiment in a line: Binding assay SERT (h), [3H]imipramine, CHO cells. The following applies: read-out: SERT [%]. An outline of the steps: as §3

The target in assay [9] is T5, adrenergic α2C receptor (Homo sapiens, UniProt P18825).
T5 sequence (P18825 1-462): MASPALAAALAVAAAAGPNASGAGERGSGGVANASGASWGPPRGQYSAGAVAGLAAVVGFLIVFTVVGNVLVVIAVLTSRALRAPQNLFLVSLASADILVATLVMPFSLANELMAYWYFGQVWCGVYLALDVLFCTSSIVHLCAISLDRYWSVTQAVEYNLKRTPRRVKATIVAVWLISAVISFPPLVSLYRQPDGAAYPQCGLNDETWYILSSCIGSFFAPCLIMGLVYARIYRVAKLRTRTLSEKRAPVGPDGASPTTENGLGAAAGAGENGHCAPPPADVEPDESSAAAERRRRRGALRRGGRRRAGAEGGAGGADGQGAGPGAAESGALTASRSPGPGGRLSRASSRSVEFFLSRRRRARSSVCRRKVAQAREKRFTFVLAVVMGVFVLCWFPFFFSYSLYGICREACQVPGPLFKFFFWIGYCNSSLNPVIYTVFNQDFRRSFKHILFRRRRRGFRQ
The assay can be described thus: Binding assay α2C (h), [3H]RX 821002, CHO cells. Set-up: expressed in transfected cells; host or cells: CHO cells. To be noted: read-out: α2C [%]. In short, it runs like this: as §3

Another assay deals with T6, muscarinic M3 receptor (Homo sapiens, UniProt P20309).
T6 construct: expressed in transfected cells; host or cells: CHO cells
T6 sequence (P20309 whole entry): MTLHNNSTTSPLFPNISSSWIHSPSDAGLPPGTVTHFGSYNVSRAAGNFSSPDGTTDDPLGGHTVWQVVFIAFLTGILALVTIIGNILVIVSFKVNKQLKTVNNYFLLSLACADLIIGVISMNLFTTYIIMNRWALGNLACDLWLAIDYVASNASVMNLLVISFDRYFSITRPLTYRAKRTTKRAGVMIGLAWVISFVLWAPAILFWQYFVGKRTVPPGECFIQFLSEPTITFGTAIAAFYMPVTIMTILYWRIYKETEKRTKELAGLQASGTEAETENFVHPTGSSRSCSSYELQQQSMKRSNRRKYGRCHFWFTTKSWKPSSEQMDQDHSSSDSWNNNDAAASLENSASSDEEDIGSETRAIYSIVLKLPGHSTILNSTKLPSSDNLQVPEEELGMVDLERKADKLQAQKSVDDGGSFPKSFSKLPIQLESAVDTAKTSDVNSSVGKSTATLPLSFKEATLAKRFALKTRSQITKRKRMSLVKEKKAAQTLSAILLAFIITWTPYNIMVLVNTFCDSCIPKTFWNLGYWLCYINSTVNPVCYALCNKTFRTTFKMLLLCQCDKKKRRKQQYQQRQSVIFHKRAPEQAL
The assay can be described thus: Binding assay M3 (h), [3H]4-DAMP, CHO cells. To be noted: read-out: M3 [%]. An outline of the steps: as §3

For assay [10], the target named is T5, adrenergic α2C receptor. The assay can be described thus: Cellular functional assay, adrenergic α2C receptor (agonism/antagonism). In kind it is cell-based. To be noted: for activation at 1 µM: agonist effect, percent of control specific agonist response, compounds tested at 1×10^−6M, read-out: α2C −ag [%]; for inhibition at 1 µM: read-out: α2C −antag. [%]. On the procedure: as §1, §2

T2 sequence (P28223 whole entry): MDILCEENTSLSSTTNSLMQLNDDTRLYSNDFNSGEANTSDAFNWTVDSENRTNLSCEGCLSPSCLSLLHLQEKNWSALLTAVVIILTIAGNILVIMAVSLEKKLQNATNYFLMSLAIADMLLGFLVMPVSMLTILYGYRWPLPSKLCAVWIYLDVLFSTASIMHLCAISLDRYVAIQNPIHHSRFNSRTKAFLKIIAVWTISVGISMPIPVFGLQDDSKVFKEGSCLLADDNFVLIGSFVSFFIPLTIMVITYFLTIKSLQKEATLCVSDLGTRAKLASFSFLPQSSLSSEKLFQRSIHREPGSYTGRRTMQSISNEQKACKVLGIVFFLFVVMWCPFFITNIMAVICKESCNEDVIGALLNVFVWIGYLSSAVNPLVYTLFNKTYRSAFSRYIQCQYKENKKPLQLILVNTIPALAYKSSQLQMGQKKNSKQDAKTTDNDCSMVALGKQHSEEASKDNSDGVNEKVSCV
histaminergic H1 receptor, sequence (P35367 whole entry): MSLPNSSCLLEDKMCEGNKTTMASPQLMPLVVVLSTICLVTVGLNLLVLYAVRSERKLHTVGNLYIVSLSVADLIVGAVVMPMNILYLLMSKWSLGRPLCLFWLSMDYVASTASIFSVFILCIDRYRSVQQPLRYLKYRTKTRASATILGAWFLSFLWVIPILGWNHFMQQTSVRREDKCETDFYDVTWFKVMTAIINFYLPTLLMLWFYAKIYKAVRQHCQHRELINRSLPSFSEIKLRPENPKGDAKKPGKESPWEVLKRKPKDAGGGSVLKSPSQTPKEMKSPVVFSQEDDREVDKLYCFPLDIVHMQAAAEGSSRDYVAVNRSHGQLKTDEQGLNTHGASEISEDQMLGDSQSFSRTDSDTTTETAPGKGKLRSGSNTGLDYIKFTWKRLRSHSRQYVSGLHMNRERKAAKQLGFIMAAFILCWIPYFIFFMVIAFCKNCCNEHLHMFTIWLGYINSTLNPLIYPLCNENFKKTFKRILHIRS
serotoninergic 5-HT7 receptor, sequence (P34969 whole entry): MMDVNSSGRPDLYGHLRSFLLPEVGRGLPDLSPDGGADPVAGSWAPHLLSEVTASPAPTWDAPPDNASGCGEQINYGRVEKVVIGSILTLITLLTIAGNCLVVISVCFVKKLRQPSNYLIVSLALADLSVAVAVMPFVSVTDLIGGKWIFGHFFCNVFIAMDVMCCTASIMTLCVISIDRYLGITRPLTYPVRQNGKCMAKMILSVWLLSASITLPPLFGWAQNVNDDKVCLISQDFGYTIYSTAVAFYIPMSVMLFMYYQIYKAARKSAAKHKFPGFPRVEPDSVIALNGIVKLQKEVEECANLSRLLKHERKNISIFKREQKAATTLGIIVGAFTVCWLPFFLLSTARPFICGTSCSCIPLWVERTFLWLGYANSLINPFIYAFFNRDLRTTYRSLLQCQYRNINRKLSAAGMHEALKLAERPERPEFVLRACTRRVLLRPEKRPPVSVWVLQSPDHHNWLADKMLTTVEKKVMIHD
serotoninergic 5-HT6 receptor, sequence (P50406 whole entry): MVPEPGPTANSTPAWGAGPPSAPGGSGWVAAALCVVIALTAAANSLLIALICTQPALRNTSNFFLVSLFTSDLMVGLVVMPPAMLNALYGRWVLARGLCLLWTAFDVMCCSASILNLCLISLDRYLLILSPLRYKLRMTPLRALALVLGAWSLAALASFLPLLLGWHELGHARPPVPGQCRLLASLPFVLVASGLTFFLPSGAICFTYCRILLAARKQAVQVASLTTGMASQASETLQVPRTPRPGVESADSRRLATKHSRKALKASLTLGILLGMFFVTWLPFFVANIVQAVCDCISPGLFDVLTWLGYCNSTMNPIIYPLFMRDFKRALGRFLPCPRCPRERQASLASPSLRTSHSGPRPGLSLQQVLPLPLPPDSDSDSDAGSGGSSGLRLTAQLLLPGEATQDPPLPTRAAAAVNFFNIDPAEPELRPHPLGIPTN
dopaminergic D3 receptor, sequence (P35462 whole entry): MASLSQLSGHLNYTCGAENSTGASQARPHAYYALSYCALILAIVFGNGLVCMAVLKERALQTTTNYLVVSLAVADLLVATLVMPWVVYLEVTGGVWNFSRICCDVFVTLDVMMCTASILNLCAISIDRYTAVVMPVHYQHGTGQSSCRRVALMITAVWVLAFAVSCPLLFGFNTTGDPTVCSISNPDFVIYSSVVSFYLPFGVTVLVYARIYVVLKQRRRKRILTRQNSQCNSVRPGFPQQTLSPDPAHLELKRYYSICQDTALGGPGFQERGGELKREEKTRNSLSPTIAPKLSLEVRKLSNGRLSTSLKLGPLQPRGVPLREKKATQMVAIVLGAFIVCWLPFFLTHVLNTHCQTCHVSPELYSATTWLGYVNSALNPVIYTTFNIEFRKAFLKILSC

For the compound `O=S(=O)(NCCCCN1CCC(c2noc3cc(F)ccc23)CC1)c1cc2ccc(Cl)cc2s1` [Compound 314, 6-Chloro-N-[4-[4-(6-fluoro-1,2-benzoxazol-3-yl)piperidin-1-yl]butyl]benzothiophene-2-sulphonamide], the activation at 1 µM was 5% in [1]; -3% in assay [2]; 9% on dopaminergic D2 receptor [3]; 0% in assay [4]; -30% on dopaminergic D3 receptor; 1% on adrenergic α1A receptor. Further, the activation at 1 µM (in assay [6]; at adrenergic α2C receptor [10]) was -2% throughout. The inhibition at 1 µM in [1] came to 50%; in assay [2] it was 95%; on dopaminergic D2 receptor [3] it was 86%; in assay [4], 91%; in assay [5], 102%; on dopaminergic D3 receptor it was 110%. Moreover, the inhibition at 1 µM on adrenergic α1A receptor was found to be 100%; in assay [6], 99%; on dopaminergic D2 receptor [7], 99%; in assay [8], 50%; on adrenergic α2C receptor [9], 108%; on muscarinic M3 receptor, 13%. For the same compound, at adrenergic α2C receptor [10], the inhibition at 1 µM is 30%.

Turning to `O=S(=O)(NCCCCN1CCN(c2noc3ccccc23)CC1)c1ccc(-c2ccccc2)cc1` [Compound 283, N-[4-[4-(1,2-Benzoxazol-3-yl)piperazin-1-yl]butyl]-4-phenylbenzenesulphonamide], the activation at 1 µM is 0% in [1]; -2% in [2]; 0% in assay [4]; -10% on dopaminergic D3 receptor; 0% on adrenergic α1A receptor; 0% in [6]. The activation at 1 µM at adrenergic α2C receptor [10] was 2%. Moreover, the inhibition at 1 µM in assay [1] stood at 41%; in assay [2], 93%; in assay [4] it was 64%; in assay [5], 103%; on dopaminergic D3 receptor, 58%; at adrenergic α1A receptor, 100%. The inhibition at 1 µM was 99% in assay [6]; 99% at dopaminergic D2 receptor [7]; 24% in assay [8]; 109% at adrenergic α2C receptor [9]; -4% on muscarinic M3 receptor; 25% at adrenergic α2C receptor [10].

Consider `O=S(=O)(NCCCCN1CCC(c2noc3cc(F)ccc23)CC1)c1ccc2ccccc2c1` [Compound 18, N-[4-[4-(6-Fluoro-1,2-benzoxazol-3-yl)piperidin-1-yl]butyl]naphthalene-2-sulphonamide], for which the activation at 1 µM in [2] was -1%; on dopaminergic D2 receptor [3] it was -1%; in assay [4], 1%; at dopaminergic D3 receptor, -27%; at adrenergic α1A receptor it was 0%; in [6] it was -1%. Besides, the activation at 1 µM on adrenergic α2C receptor [10] is -10%. Besides, the inhibition at 1 µM in assay [2] is 89%; on dopaminergic D2 receptor [3], 98%; in [4], 87%; in assay [5], 100%; on dopaminergic D3 receptor, 114%; on adrenergic α1A receptor it was 99%. Besides, the inhibition at 1 µM in assay [6] came to 102%; at dopaminergic D2 receptor [7] it was 98%; in assay [8] it was 39%; on adrenergic α2C receptor [9], 100%; on muscarinic M3 receptor, 6%; at adrenergic α2C receptor [10] it was 28%.

With `O=S(=O)(NCCCCN1CCN(c2noc3ccccc23)CC1)c1ccc2cc(Cl)ccc2c1` [Compound 79, N-[4-[4-(1,2-Benzoxazol-3-yl)piperazin-1-yl]butyl]-6-chloro-naphthalene-2-sulphonamide], the activation at 1 µM in assay [1] was 0%; in assay [2], -2%; on dopaminergic D2 receptor [3], 3%; in assay [4], 1%; at dopaminergic D3 receptor it was -9%; in [6] it was -2%. On adrenergic α2C receptor [10], the activation at 1 µM was 7%. Also, the inhibition at 1 µM amounted to 57% in assay [1]; 97% in assay [2]; 77% on dopaminergic D2 receptor [3]; 76% in assay [4]; 91% in assay [5]; 77% on dopaminergic D3 receptor. Besides, the inhibition at 1 µM in assay [6] amounted to 97%; at dopaminergic D2 receptor [7], 99%; in [8] it was 3%; at adrenergic α2C receptor [9], 106%; on muscarinic M3 receptor, 12%; on adrenergic α2C receptor [10], 22%.

Turning to `Cc1c(S(=O)(=O)NCCCCN2CCN(c3nsc4ccccc34)CC2)sc2ccc(F)cc12` [Compound 65, N-[4-[4-(1,2-Benzothiazol-3-yl)piperazin-1-yl]butyl]-5-fluoro-3-methylbenzothiophene-2-sulphonamide], the activation at 1 µM in [1] is 0%; in assay [2], -2%; on dopaminergic D2 receptor [3] it was 10%; in assay [4] it was -1%; on adrenergic α1A receptor, 0%; in assay [6] it was -2%. Moreover, the activation at 1 µM at adrenergic α2C receptor [10] was determined as 8%. The inhibition at 1 µM in assay [1] worked out at 60%; in [2], 91%; on dopaminergic D2 receptor [3] it was 74%; in assay [4] it was 81%; in [5] it was 101%; on adrenergic α1A receptor, 98%. Further, the inhibition at 1 µM came to 98% in assay [6]; 99% on dopaminergic D2 receptor [7]; 57% in [8]; 104% on adrenergic α2C receptor [9]; 8% on muscarinic M3 receptor; 20% at adrenergic α2C receptor [10].

For the origin of these results see patent US8822517B2, “Arylosulfonamides for the treatment of CNS diseases” (Adamed SP. Z O.O., priority 2010, dated 2014).
